Test results published in PMC10609924, “Cytotoxic Activity of Wild Plant and Callus Extracts of Ageratina pichinchensis and 2,3-Dihydrobenzofuran Isolated from a Callus Culture” (Pharmaceuticals, 2023).
Converted amounts (≈) assume the structure as drawn.

Assays:
[1] = test system: HeLa cells (cervical cancer); assay: Cytotoxic assay (CellTiter 96 AQueous One Solution), HeLa
Description: (§1) We evaluated the cytotoxic activity of the ethyl acetate and methanol extracts obtained from different parts of the wild plant A. pichinchensis, including its leaves, stems, and callus cultures. The extracts were evaluated using concentrations of 200, 100, 50, 25, and 12.5 µg/mL against various cell lines (Table 1), including human prostate carcinoma (PC-3), cervical cancer (HeLa), hepatocellular carcinoma (Huh-7), human hepatoma (HepG2) and breast tumor cells (MCF-7). These cell lines represent cell types that, unfortunately, have high incidence and mortality rates globally.
PC-3 (prostate), HeLa (cervical), MCF-7 (breast), and Huh-7 and HepG2 (hepatocellular) human cancer cell lines were purchased from ATCC (Manassas, VA, USA) (Figure 5). We also included an immortalized human epidermal keratinocyte line (HaCat) as a control of non-cancerous cells. PC-3 was grown in RPMI-1640 medium (Sigma Aldrich, St. Louis, MO, USA), while Huh-7, HepG2, HeLa, and HaCat were grown in DMEM medium (Invitrogen, Thermo Fisher Scientific, Waltham, MA, USA) supplemented with 10% SFB and 2 mM glutamine. All cultures were incubated at 37 °C in 5% CO2.
Cells (4 × 10^3 cells/well) were seeded in 96-well plates. The cells were treated with the investigated samples (at 200, 100, 50, 25, and 12.5 µg/mL) and incubated at 37 °C in 5% CO2 for 48 h. Paclitaxel was used as a positive control. For determining the number of viable cells in proliferation we used a CellTiter 96® AQueous One Solution Cell Proliferation Assay kit (Promega, Madison, WI, USA), following the manufacturer’s instructions. Cell viability was determined by absorbance at 450 nm using an automated ELISA reader (Promega, Madison, WI, USA). Stock solutions of all compounds were prepared in DMSO at a maximum concentration of 0.5%. The experiments were conducted in triplicate in three independent experiments. Data were analyzed using the Prism 8.0 statistical program (Graphpad Software Inc., La Jolla, CA, USA) and the half-maximal inhibitory concentrations (IC50) were determined by regression analysis.

[2] = test system: PC-3 cells (human prostate carcinoma); assay: Cytotoxic assay (CellTiter 96 AQueous One Solution), PC-3
Description: as §1
(§2) PC-3 (prostate), HeLa (cervical), MCF-7 (breast), and Huh-7 and HepG2 (hepatocellular) human cancer cell lines were purchased from ATCC (Manassas, VA, USA) (Figure 5). We also included an immortalized human epidermal keratinocyte line (HaCat) as a control of non-cancerous cells. […]
(§3) Cells (4 × 10^3 cells/well) were seeded in 96-well plates. […] Cell viability was determined by absorbance at 450 nm using an automated ELISA reader (Promega, Madison, WI, USA). […] Data were analyzed using the Prism 8.0 statistical program (Graphpad Software Inc., La Jolla, CA, USA) and the half-maximal inhibitory concentrations (IC50) were determined by regression analysis.

[3] = test system: Huh-7 cells (hepatocellular carcinoma); assay: Cytotoxic assay (CellTiter 96 AQueous One Solution), Huh-7
Description: as §1, §2, §3

[4] = test system: HepG2 cells (human hepatoma); assay: Cytotoxic assay (CellTiter 96 AQueous One Solution), HepG2
Description: as §1, §2, §3

[5] = test system: MCF-7 cells (breast tumor cells); assay: Cytotoxic assay (CellTiter 96 AQueous One Solution), MCF-7
Description: as §1, §2, §3

[6] = Cytotoxic assay (CellTiter 96 AQueous One Solution), HaCat selectivity control; details: human
Description: as §1, §2, §3

[7] = test system: PC-3, HeLa, Huh-7, HepG2, MCF-7 and HaCat cell lines; assay: Cytotoxic assay, statements over the whole cell line panel; details: PTX-treated cell lines
Description: as §1, §2, §3

[8] = test system: HaCat cells (immortalized human epidermal keratinocytes); assay: Cytotoxic assay (CellTiter 96 AQueous One Solution), HaCat selectivity control
Description: as §1, §2, §3

| Compound | IC50 ([1]; Homo sapiens, HeLa, 48 h, read-out: Cytotoxic activity (IC50), HeLa) | IC50 ([2]; Homo sapiens, PC-3, 48 h, read-out: Cytotoxic activity (IC50), PC-3) | IC50 ([3]; Homo sapiens, Huh-7, 48 h, read-out: Cytotoxic activity (IC50), Huh-7) | IC50 ([4]; Homo sapiens, HepG2, 48 h, read-out: Cytotoxic activity (IC50), HepG2) | IC50 ([5]; Homo sapiens, MCF7, 48 h, read-out: Cytotoxic activity (IC50), MCF-7) | IC50 at 48 h [6] | IC50 values range in words [7] | Cytotoxic activity (IC50), HeLa [1] | Cytotoxic effect in words, HeLa [1] | Cytotoxic activity (IC50), PC-3 [2] | Cytotoxic activity (IC50), Huh-7 [3] | Cytotoxic activity (IC50), HepG2 [4] | Cytotoxic activity (IC50), MCF-7 [5] | Cytotoxic activity (IC50), HaCat [8] |
| --- | --- | --- | --- | --- | --- | --- | --- | --- | --- | --- | --- | --- | --- | --- |
| CC(=O)O[C@H]1C(=O)[C@@]2(C)[C@H]([C@H](OC(=O)c3ccccc3)[C@]3(O)C[C@H](OC(=O)[C@H](O)[C@@H](NC(=O)c4ccccc4)c4ccccc4)C(C)=C1C3(C)C)[C@]1(OC(C)=O)CO[C@@H]1C[C@@H]2O [Paclitaxel, paclitaxel] | 0.017 ± 0.00103 µg/mL (≈ 0.0199 µM) | 0.013 ± 0.00196 µg/mL (≈ 0.0152 µM) | 0.021 ± 0.00273 µg/mL (≈ 0.0246 µM) | 0.00857 µg/mL (≈ 0.01 µM) | 0.018 ± 0.0035 µg/mL (≈ 0.0211 µM) | 0.097 ± 0.0128 µg/mL (≈ 0.114 µM) | nanomolar (nM) range |  |  |  |  |  |  |  |
| (2S,3R)-5-acetyl-7,3-dihydroxy-2-(1-isopropenyl)-2,3-dihydrobenzofuran [compound 7] |  |  |  |  |  |  |  | 23.86 ± 2.5 µg/mL | remarkable effect on the inhibition of HeLa cells | 80.36 ± 4.63 µg/mL | 79.98 ± 3.78 µg/mL | 74.62 ± 2.02 µg/mL | 107.20 ± 1.52 µg/mL | 123.50 ± 15.17 µg/mL |
